Assay results reported in article PMC10482942, “Novel quinazoline-1,2,3-triazole hybrids with anticancer and MET kinase targeting properties” (Scientific Reports, 2023).

How the values were obtained:
AXL (h) = target: T1, AXL (h) (Homo sapiens, UniProt P30530); experiment: Radiometric kinase panel assay; type: biochemical; settings: Km ATP
T1 construct: purchased Eurofins Discovery

AKT1 (h) = target: T2, AKT1 (h) (Homo sapiens, UniProt P31749); experiment: Radiometric kinase panel assay; type: biochemical; settings: Km ATP
T2 construct: purchased Eurofins Discovery

MTOR (h) = target: T3, MTOR (h) (Homo sapiens, UniProt P42345); experiment: Radiometric kinase panel assay; type: biochemical; settings: Km ATP
T3 construct: purchased Eurofins Discovery

FLT1 (h) = target: T4, FLT1 (h) (Homo sapiens, UniProt P17948); experiment: Radiometric kinase panel assay; type: biochemical; settings: Km ATP
T4 construct: purchased Eurofins Discovery

RET (h) = target: T5, RET (h) (Homo sapiens, UniProt P07949); experiment: Radiometric kinase panel assay; type: biochemical; settings: Km ATP
T5 construct: purchased Eurofins Discovery

EGFR (h) = target: T6, EGFR (h) (Homo sapiens, UniProt P00533); experiment: Radiometric kinase panel assay; type: biochemical; settings: Km ATP
T6 construct: purchased Eurofins Discovery

MAPK1 (h) = target: T7, MAPK1 (h) (Homo sapiens, UniProt P27361); experiment: Radiometric kinase panel assay; type: biochemical; settings: Km ATP
T7 construct: purchased Eurofins Discovery

CDK4/cyclinD3 (h) = target: T8, CDK4/cyclinD3 (h) (Homo sapiens, UniProt P11802); experiment: Radiometric kinase panel assay; type: biochemical; settings: Km ATP
T8 construct: purchased Eurofins Discovery

[1] = test system: MET phosphorylation in AsPC-1 cells; experiment: MET phosphorylation by western blot analysis; type: cell-based, human; settings: 10 and 25 μM, 3 h
Method: The effect of synthetic compounds on MET phosphorylation in AsPC-1 cells was investigated by western blot analysis. At first, the AsPC-1 cells were seeded in 6-well plates at a density of 250,000 cells/ml and incubated at 37 °C for 24 h. The cultured cells were then treated with the synthetic compounds at different concentrations for 3 h. Then, the cells were harvested via addition of ice-cold RIPA lysis buffer (20 mM Tris base, 150 mM NaCl, 1% Np40, 1 mM EDTA, […] and 0.1% SDS, pH 8.0) containing […] (PMSF; SigmaAldrich), 10 mM Na4O7P2 and 2 mM Na3VO4 and by use of scrapers. Also, PMSF and a protease inhibitor cocktail (Roche) were added to the extraction buffer to prevent the breakdown of the proteins. […] Protein contents of the cell extracts were measured by a bicinchoninic acid protein assay kit (Quanti-Pro BCA, Sigma–Aldrich, St. Louis, USA) using bovine serum albumin as the protein standard. […] Proteins were then detected by incubation with specific primary antibodies, rabbit monoclonal anti-p-MET (dilution 1:1000, catalogue number: 3126, Cell Signaling, Danvers, MA), and rabbit monoclonal anti-MET (dilution 1:1000, catalogue number: 4560, Cell Signaling, Danvers, MA) overnight at 4 °C. […] The band intensities were calculated with the software Gene Tools (SyneGene, Cambridge, UK) for Windows.

ALK (h) = target: T9, ALK (h) (Homo sapiens, UniProt Q9UM73); experiment: Radiometric kinase panel assay; type: biochemical; settings: Km ATP
T9 construct: purchased Eurofins Discovery

AsPC-1 spheroids = experiment: Three-dimensional spheroid growth inhibition, APH assay; type: cell-based, human; settings: for Circularity and solidity of spheroids: AsPC-1 spheroids, after 72 h of treatment, ImageJ; for IC50: Homo sapiens, ASPC1, APH assay, 72 h treatment, read-out: IC50 in AsPC-1 three-dimensional spheroid model
Method: Three-dimensional spheroid cell cultures were produced based on the liquid overlay technique. Agarose solution in RPMI (1.5% w/v) was prepared and sterilized in an autoclave. Then, each well of 96-well flat-bottom plates was coated with 50 µl of agarose solution and was left to solidify at room temperature for at least 2 h. One hundred twenty-five µl of a suspension of AsPC-1 cells in RPMI medium containing 10% FBS at a density of 2 × 10^5 cells/ml was added to each well. Afterwards, the plates were centrifuged at 700g for 5 min and incubated under standard culture conditions. After 48 h of incubation, which allowed one spheroid to be formed in each well, 100 µl of the medium was removed, and spheroids were treated with synthesized derivatives diluted in a fresh medium containing 10% FBS for 72 h.
At the final step, cell viability was measured by the acid phosphatase (APH) assay, which is based on the hydrolysis of the p-nitrophenyl phosphate (pNPP) and its conversion to yellow p-nitrophenol by intracellular acid phosphatases present in viable cells. Briefly, 160 µl of the medium was removed and 200 µl of a solution containing 2 mg/ml pNPP dissolved in 0.1 M sodium acetate at pH 4.8 were added to each well and incubated for 120 min at 37 °C. Afterwards, 10 µl of NaOH 1 M was added to each well to stop the reaction, and the absorbance was recorded at 405 nm within 10 min by a Bio-Tek microplate reader (Model Synergy HTX). The images of spheroids were recorded by a bright field microscope (Nikon model DS-Ri2) and analyzed with Nikon NIS-Elements AR imaging software for Windows version 4.30.

PDGFRB (h) = target: T10, PDGFRB (h) (Homo sapiens, UniProt P09619); experiment: Radiometric kinase panel assay; type: biochemical; settings: Km ATP
T10 construct: purchased Eurofins Discovery

AKT2 (h) = target: T11, AKT2 (h) (Homo sapiens, UniProt P31751); experiment: Radiometric kinase panel assay; type: biochemical; settings: Km ATP
T11 construct: purchased Eurofins Discovery

FMS (h) = target: T12, FMS (h) (Homo sapiens, UniProt P07333); experiment: Radiometric kinase panel assay; type: biochemical; settings: Km ATP
T12 construct: purchased Eurofins Discovery

MAPK2 (m) = target: T13, MAPK2 (m) (Mus musculus, UniProt P63085); experiment: Radiometric kinase panel assay; type: biochemical; settings: Km ATP
T13 construct: purchased Eurofins Discovery
T13 sequence (P63085 whole entry): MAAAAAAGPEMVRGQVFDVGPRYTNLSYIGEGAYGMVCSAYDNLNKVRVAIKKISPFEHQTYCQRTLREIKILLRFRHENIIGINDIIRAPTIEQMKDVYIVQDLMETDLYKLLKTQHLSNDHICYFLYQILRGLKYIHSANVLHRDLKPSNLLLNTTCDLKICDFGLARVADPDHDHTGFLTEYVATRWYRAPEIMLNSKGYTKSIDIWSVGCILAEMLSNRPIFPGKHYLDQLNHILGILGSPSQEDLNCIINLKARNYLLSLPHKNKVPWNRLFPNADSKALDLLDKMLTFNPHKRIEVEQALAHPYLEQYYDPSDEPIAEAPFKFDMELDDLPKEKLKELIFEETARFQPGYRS

T9 sequence (Q9UM73 19-1620): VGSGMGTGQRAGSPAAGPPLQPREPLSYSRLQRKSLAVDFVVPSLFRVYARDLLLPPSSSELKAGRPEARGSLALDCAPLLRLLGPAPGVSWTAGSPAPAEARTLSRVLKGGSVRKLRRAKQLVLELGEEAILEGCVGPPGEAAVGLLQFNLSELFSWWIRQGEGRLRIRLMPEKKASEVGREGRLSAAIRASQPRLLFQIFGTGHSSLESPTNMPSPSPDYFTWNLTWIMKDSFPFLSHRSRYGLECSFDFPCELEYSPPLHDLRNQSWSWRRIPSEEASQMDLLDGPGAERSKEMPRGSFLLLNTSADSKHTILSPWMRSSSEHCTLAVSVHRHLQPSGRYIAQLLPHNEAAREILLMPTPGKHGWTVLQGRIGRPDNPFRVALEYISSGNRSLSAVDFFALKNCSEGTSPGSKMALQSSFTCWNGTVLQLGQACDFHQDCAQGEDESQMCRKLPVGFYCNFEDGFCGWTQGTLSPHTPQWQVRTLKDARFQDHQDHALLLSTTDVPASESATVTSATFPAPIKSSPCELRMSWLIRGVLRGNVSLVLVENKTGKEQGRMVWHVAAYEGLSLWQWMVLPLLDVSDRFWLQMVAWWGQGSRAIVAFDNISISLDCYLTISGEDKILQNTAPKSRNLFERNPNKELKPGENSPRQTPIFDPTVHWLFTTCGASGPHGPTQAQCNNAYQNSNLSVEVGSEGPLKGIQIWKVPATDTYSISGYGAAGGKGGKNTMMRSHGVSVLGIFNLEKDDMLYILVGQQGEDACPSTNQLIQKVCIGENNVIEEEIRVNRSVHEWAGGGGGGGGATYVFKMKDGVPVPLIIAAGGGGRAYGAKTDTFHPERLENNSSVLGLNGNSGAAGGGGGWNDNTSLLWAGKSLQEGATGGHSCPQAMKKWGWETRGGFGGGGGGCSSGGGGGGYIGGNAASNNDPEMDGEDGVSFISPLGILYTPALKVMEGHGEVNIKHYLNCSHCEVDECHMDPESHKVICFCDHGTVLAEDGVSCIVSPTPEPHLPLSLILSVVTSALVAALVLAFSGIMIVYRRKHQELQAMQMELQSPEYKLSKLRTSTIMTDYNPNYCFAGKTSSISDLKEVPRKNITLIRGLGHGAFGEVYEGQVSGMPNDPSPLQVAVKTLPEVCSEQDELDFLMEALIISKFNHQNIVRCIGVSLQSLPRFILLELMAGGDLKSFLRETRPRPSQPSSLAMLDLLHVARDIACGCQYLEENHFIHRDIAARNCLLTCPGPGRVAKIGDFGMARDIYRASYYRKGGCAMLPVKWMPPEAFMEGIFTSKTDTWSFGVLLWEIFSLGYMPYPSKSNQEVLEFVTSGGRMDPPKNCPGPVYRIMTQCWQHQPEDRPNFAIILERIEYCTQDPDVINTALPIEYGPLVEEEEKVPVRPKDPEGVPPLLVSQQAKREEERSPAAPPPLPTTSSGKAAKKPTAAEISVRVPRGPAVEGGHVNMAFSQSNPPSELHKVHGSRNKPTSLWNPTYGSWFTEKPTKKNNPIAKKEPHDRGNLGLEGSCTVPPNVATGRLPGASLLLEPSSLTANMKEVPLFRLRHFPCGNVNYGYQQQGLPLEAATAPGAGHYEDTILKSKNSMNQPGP
T2 sequence (P31749 whole entry): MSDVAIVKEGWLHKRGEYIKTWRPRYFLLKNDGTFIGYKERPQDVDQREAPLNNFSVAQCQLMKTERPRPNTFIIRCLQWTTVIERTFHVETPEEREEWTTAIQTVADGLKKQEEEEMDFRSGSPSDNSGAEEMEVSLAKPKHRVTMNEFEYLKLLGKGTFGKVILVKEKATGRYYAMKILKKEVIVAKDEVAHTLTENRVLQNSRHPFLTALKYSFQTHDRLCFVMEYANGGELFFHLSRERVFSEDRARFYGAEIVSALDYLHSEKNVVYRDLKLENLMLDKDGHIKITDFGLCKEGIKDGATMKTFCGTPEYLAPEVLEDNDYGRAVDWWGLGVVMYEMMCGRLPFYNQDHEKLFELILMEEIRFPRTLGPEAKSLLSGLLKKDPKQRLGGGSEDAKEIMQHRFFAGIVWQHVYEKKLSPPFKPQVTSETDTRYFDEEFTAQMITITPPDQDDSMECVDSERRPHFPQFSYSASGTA
T11 sequence (P31751 whole entry): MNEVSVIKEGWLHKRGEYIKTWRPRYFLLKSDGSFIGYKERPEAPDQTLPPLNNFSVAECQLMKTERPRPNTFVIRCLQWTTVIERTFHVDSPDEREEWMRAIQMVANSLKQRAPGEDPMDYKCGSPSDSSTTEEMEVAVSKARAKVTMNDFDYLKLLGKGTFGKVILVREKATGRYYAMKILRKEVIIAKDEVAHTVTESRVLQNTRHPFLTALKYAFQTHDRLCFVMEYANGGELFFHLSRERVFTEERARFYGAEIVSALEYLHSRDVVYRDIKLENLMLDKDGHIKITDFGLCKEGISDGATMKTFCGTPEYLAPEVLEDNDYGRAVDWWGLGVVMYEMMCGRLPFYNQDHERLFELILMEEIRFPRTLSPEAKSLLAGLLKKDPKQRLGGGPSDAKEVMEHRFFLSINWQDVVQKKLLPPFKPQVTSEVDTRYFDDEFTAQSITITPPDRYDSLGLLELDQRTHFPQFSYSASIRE
T10 sequence (P09619 33-1106): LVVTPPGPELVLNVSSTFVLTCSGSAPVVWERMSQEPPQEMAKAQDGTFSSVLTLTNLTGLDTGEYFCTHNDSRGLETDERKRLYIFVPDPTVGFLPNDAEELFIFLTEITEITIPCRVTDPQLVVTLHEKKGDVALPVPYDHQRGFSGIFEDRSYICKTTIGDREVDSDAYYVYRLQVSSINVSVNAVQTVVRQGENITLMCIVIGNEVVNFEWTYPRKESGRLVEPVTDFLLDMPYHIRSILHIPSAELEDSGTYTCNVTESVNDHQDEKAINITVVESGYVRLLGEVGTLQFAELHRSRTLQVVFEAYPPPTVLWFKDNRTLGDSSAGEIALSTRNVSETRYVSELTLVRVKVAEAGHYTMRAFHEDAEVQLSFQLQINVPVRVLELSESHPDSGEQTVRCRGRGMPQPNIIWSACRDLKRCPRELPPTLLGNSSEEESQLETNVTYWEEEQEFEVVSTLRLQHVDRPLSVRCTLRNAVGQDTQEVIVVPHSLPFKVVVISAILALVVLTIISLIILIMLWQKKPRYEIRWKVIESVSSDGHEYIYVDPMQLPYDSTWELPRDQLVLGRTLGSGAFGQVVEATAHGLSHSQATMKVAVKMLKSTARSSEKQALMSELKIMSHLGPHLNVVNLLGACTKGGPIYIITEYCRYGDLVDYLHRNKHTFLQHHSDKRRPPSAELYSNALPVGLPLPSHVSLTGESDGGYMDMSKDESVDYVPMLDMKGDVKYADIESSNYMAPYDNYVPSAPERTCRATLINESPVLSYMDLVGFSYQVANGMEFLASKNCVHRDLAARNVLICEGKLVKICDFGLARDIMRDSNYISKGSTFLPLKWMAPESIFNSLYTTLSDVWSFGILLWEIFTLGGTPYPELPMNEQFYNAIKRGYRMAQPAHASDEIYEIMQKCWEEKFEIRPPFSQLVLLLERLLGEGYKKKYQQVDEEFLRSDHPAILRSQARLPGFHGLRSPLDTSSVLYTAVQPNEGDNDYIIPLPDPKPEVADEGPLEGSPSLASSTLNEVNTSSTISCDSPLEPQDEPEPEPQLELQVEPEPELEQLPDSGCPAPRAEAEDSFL
T12 sequence (P07333 20-972): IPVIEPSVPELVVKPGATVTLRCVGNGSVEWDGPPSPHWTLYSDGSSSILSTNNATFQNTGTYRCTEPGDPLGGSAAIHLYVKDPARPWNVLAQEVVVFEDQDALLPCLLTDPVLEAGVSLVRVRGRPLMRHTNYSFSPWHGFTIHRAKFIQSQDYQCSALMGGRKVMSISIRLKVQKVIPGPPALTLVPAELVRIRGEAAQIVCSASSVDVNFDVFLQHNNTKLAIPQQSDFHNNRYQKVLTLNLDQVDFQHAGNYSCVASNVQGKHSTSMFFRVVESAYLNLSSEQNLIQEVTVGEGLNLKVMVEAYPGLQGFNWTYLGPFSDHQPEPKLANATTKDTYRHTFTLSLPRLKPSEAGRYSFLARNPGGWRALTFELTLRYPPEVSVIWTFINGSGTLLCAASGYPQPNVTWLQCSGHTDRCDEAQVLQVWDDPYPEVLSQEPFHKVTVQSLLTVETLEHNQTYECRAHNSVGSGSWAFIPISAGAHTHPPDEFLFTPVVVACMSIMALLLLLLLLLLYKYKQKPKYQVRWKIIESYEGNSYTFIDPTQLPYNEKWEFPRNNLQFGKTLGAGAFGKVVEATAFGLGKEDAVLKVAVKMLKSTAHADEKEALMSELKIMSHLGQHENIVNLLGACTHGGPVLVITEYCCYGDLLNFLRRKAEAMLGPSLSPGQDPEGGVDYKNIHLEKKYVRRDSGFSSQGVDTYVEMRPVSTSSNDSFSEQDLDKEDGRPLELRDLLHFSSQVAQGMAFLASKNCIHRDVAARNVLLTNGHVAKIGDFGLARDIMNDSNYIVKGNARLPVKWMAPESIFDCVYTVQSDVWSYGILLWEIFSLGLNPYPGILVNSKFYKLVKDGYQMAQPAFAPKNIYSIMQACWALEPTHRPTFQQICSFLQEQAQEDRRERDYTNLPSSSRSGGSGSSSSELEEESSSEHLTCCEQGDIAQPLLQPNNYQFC

inhibition at 10 µM (AXL (h)) [%]	inhibition at 10 µM (AKT1 (h)) [%]	inhibition at 10 µM (MTOR (h)) [%]	inhibition at 10 µM (FLT1 (h)) [%]	inhibition at 10 µM (RET (h)) [%]	inhibition at 10 µM (EGFR (h)) [%]	inhibition at 10 µM (MAPK1 (h)) [%]	inhibition at 10 µM (CDK4/cyclinD3 (h)) [%]	inhibition at 10 µM (ALK (h)) [%]	IC50 (AsPC-1 spheroids) [µM]	inhibition at 10 µM (PDGFRB (h)) [%]	melting point [°C]	inhibition at 10 µM (AKT2 (h)) [%]	inhibition at 10 µM (FMS (h)) [%]	inhibition at 10 µM (MAPK2 (m)) [%]	SMILES	Effect on MET phosphorylation [1]	Circularity and solidity of spheroids (AsPC-1 spheroids)
12	15	3	2	10	8	5	2	3	32.7 ± 7.2						Cc1ccc(Cn2cc(COc3ccc(C=NNc4ncnc5ccccc45)cc3)nn2)cc1 [Compound 8c, 2-(4-((1-(4-Methylbenzyl)-1H-1,2,3-triazol-4-yl)methoxy)benzylidene)-1-(quinazolin-4-yl)hydrazine]	significant suppression of MET phosphorylation	significant reduction
	26							14	36.6 ± 4.5	7	205.4	18	0	7	CC(C)(C)c1ccc(Cn2cc(COc3ccc(C=NNc4ncnc5ccccc45)cc3)nn2)cc1 [Compound 8h, 2-(4-((1-(4-Tert-butylbenzyl)-1H-1,2,3-triazol-4-yl)methoxy)benzylidene)-1-(quinazolin-4-yl)hydrazine]		significant reduction
